Laboratory results taken from patent US8859615B2, “Compounds, compositions and methods for reducing toxicity and treating or preventing diseases” (priority 2008, dated 2014).
Where two headings read alike, the source gives them in different places.

Columns and labels:
[1] = test system: human neuroblastoma IMR-32 cells; assay: 50% toxicity in the IMR-32 induction assay (Table 12); type: cell-based
Method: (§1) Compounds were screened for AKR1C enzyme activity as set forth in Halim, M.; Yee, D. J. and Sames, D. J. Am. Chem. Soc. 2008, […], 14123-14128. […] Specifically, coumberone metabolism studies in IMR-32 can be done as follows: Early-passage (<P25) IMR-32 cells were seeded at a density of 4×10^4 cells/well in 96-well dish. They were then treated with the various inducers or DMSO vehicle (0.5% v/v) control. The concentration of each inducer was varied from 50 nM to 60 μM and the cells were incubated with these for either 24 or 48 hours. 72 hours after seeding, the media was removed and 100 μL of experimental media (DMEM without phenol red supplemented with 100 units/ml penicillin, 100 μg/ml streptomycin, 4 mM L-glutamine and 1% charcoal-dextran treated FBS) was added and incubated for 2 hrs. 100 μl more of the experimental media containing Coumberone (final concentration of 5 μM) was then added. The fluorescence of the cell culture medium was recorded on a plate reader MicroMax 384 connected to a Jobin Yvon Fluorolog by detecting fluorescence at 510 nm upon excitation at 385 nm. The reading was taken every 6 hours for 72 hours. Metabolic conversion rate was obtained by measuring the change in fluorescence per hour for the first 36 hours. The relative increase in metabolic rate was calculated by dividing the metabolic conversion rates of cells incubated with the activator compounds with those incubated with DMSO vehicle. […] Fold-induction is the increase metabolic activity of the reporter. […] “None” indicates no observed induction.

[2] = test system: AKR1C2 and AKR1C3 in human neuroblastoma IMR-32 cells; assay: Induction of AKR1C enzymes, coumberone metabolism (Tables 12, 13); conditions: for Fold induction of AKR1C2 and AKR1C3 in IMR-32 cells (result in words): inducer varied from 50 nM to 60 μM; for EC50: IMR-32, read-out: EC50 of induction of AKR1C2 and AKR1C3 in IMR-32 cells
Method: as §1
The IMR-32 induction assay was run as follows. Early-passage (<P25) IMR-32 cells were seeded at a density of 4×10^4 cells/well in 96-well dish. They were then treated with the various inducers or DMSO vehicle (0.5% v/v) control. The concentration of each inducer was varied from 50 nM to 60 μM and the cells were incubated with these for either 24 or 48 hours. 72 hours after seeding, the media was removed and 100 μL of experimental media (DMEM without phenol red supplemented with 100 units/ml penicillin, 100 μg/ml streptomycin, 4 mM L-glutamine and 1% charcoal-dextran treated FBS) was added and incubated for 2 hrs. 100 μl more of the experimental media containing Coumberone (final concentration of 5 μM) was then added. The fluorescence of the cell culture medium was recorded on a plate reader MicroMax 384 connected to a Jobin Yvon Fluorolog by detecting fluorescence at 510 nm upon excitation at 385 nm. The reading was taken every 6 hours for 72 hours. Metabolic conversion rate was obtained by measuring the change in fluorescence per hour for the first 36 hours. The relative increase in metabolic rate was calculated by dividing the metabolic conversion rates of cells incubated with the activator compounds with those incubated with DMSO vehicle. […] J. Am. Chem. Soc. 2008, 130, 14123-[…].

[3] = test system: CCRF-CEM human T-cell acute lymphoblastic leukemia cells; assay: In vitro cytotoxicity against CCRF-CEM (XTT / CCK-8 tetrazolium assay, 72 hr); conditions: Homo sapiens, CCRF-CEM, read-out: IC50 (μM) CCRF-CEM
Method: The cytotoxicity IC50 of each compound was measured with the XTT assay using the 2,3-bis(2-methoxy-4-nitro-5-sulfophenyl)-5-[(phenylamino)carbonyl]-2H-tetrazolium hydroxide (XTT) microculture method as described in Scudiero et al., Cancer Res., 48:4827 (1988), the contents of which are hereby incorporated by reference in their entirety. The CCK-8 assay is a cell counting kit-8 (CCK-8) tetrazolium assay using a 96-well microplate (Dojindo Molecular Technologies, Inc., Rockville, Md.) (M. Ishiyama et al., Biol. Pharm. Bull. 19: 1518, 1996). Absorbance was measured by Powerwave a XS microplate spectrophotometer. This method described is considered a general method in vitro cytotoxicity studies.
The data in Tables 2X, 3A-E, 4, 5, and 6 were obtained using the cell counting kit-8 (CCK-8) tetrazolium assay in a 96-well microplate. Five to seven concentrations of each compound in triplicate were used, and the IC50 values were determined by CompuSyn software automation (Chou T C. and Martin N. ComboSyn, Inc., 2006) based on the median-effect equation and plot (Chou T C. J. Theor. Biol. 59:235-276, 1976; Chou T C. Pharmacol. Rev. 58: 621-681, 2006). […] The r value defines the correlation coefficient of the median-effect plot which signifies the conformity to the mass-action law principle (Chou T C. J. Theor. Biol. 59:235-276, 1976; Chou T C. Pharmacol. Rev. 58:621-681, 2006). These parameters were determined by CompuSyn simulation (available at http://www.combosyn.com).
CCRF-CEM human T-cell acute lymphoblastic leukemia cells and the corresponding vinblastine-resistant cells (CCRF-CEM/VBL100) were cultured at an initial density of 5×10^4 cells per milliliter. The cultured cells were maintained in a 5% CO2-humidified atmosphere at 37° C. in RPMI medium 1640 (GIBCO/BRL) containing penicillin (100 units/mL), streptomycin (100 μg/mL, GIBCO/BRL), and 10% heat-inactivated fetal bovine serum. The cytotoxicity of each Compound of the invention was measured using the 2,3-bis(2-methoxy-4-nitro-5-sulfophenyl)-5-[(phenylamino)carbonyl]-2H-tetrazolium hydroxide (XTT) microculture method as described in Scudiero et al., Cancer Res., 48:4827 (1988), the contents of which are hereby incorporated by reference in their entirety.
Absorbance was measured by Powerwave XS microplate spectrophotometer.

[4] = Homo sapiens, IMR-32; read-out: 50% toxicity in IMR-32 cells
[5] = Homo sapiens, IMR-32, sub-head printed inside Table 13 r22; read-out: IC50 (μM) IMR-32
[6] = Homo sapiens, IMR-32, read-out: 50% toxicity in IMR-32 cells
[7] = Homo sapiens, IMR-32, read-out: Fold induction of AKR1C2 and AKR1C3 in IMR-32 cells

Structure (SMILES)	IC50 [1, 4]	Fold induction of AKR1C2 and AKR1C3 in IMR-32 cells (result in words) [2]	further results
CCCCCCC[C@H]1OC(C)(C)O[C@@H]1Cc1c[nH]nn1 [Compound 12]	~35 µM	None	
C=C[C@@](C)(O)C#CC#CC[C@H]1OC(C)(C)O[C@@H]1CCCCCCC [analog 8]		None	
CCCCCCC[C@@H](O)[C@H](O)CC#CC#C[C@H](O)c1ccccc1		None	IC50 ([1]; listed as 19; read-out: 50% toxicity in IMR-32 cells): > 40 µM
CCCCCCC[C@H]1OC(C)(C)O[C@@H]1Cc1ccc(C=O)cc1 [drawing 246]			IC50 [3]: 12.6 µM
C=C1CO[C@H]2[C@@H]3C(=O)C[C@@H](C(C)C)[C@]3(C)C[C@H]3OC(=O)C[C@@]3(C)[C@@]12O [Compound 35]	> 50 µM	None	
O=C1NC2(CCCCC2)C(=O)N2CCC[C@@H]12 [Compound 26]		None	
CCCCCCC[C@H]1OC(C)(C)O[C@@H]1Cc1c[nH]nn1 [drawing 250]			IC50 [1, 5]: 35 µM
CC12COC3(O)C4O[C@H]5CCC1(O)C45CC(O)C32C (mixture of isomers) [Compound 33]		None	IC50 [1, 6]: > 40 µM
C=C[C@H](O)C#CC#CC[C@H](O)[C@@H](O)CCCCCCC [drawing 241]			IC50 [3]: 2.69 µM
CCCCCCC[C@H]1OC(C)(C)O[C@@H]1Cc1ccc(C=O)cc1 [Compound 13]	~30 µM	None	
C=C[C@H](C#CC#CC[C@H]1OC(C)(C)O[C@@H]1CCCCCCC)OC [Compound 7]		None	
CCCCCCC[C@@H](O)[C@H](O)CC#CC#CC(O)/C=C/c1ccccc1 (some centres unmarked) [drawing 243]			IC50 [3]: 9.46 µM
C=CC(O)c1ccc(C[C@H]2OC(C)(C)O[C@@H]2CCCCCCC)cc1 (some centres unmarked) [drawing 247]			IC50 [3]: 5.25 µM
CCCCCCC[C@@H](O)[C@H](O)CC#CC#CCO			IC50 [3]: 5.57 µM
CCCCCCC[C@H]1OC(C)(C)O[C@@H]1Cc1ccc(C(O)CC)cc1 (some centres unmarked) [drawing 248]			IC50 [3]: 4.18 µM
C=C[C@H](O)C#CC#CC[C@H]1OC(C)(C)O[C@@H]1CCCCCCC [Example 21]	~4 µM		fold induction at 1 µM [2, 7]: 1.4
CCCCCCC[C@H]1OC(C)(C)O[C@@H]1Cc1ccc(C(O)CC)cc1 (some centres unmarked) [Compound 14]	~40 µM	None	
C=C[C@H](C#CC#CC[C@H]1OC(C)(C)O[C@@H]1CCCCCCC)OC(C)=O [Compound 4]	> 40 µM		fold induction at 20 µM [2, 7]: 1.5

Structure (SMILES)	IC50 [1, 4]	Fold induction of AKR1C2 and AKR1C3 in IMR-32 cells (result in words) [2]	further results
CCCCCCC[C@H]1OC(C)(C)O[C@@H]1Cc1nnn(Cc2ccccc2)c1C(O)CC (some centres unmarked) [drawing 249]			IC50 [1, 5]: 35 µM
CCCCCCC[C@H]1OC(C)(C)O[C@@H]1CC#CC#C[C@H](O)c1ccccc1 [drawing 245]			IC50 [3]: 2.49 µM
CCCCCCC[C@H]1OC(C)(C)O[C@@H]1CC#CC#CC(=O)CC [Compound 5]		None	
CCCCCCC[C@H]1OC(C)(C)O[C@@H]1CC#CC#C/C=C/C(OC)c1ccccc1 (some centres unmarked) [Example 25]	~32.5 µM	None	
C[C@]12COC(=O)[C@@]1(C)[C@H]1O[C@@]3(C)[C@H](O)C[C@@]24OC(=O)CC134 (some centres unmarked) [Compound 32]		None	IC50 [1, 6]: > 40 µM
C=CC(O)c1ccc(C[C@H]2OC(C)(C)O[C@@H]2CCCCCCC)cc1 (some centres unmarked) [Compound 15]	~40 µM	None	
CCCCCCC[C@@H](O)[C@H](O)CC#CC#C[C@H](O)c1ccccc1 [drawing 244]			IC50 [3]: 5.96 µM
C=C[C@H](O)C#CC#CC[C@H](O)[C@@H](O)CCCCCCC [Compound 16]			IC50 [1, 6]: ~12 µM; EC50 ([2]; Homo sapiens): ~3.5 µM; fold induction at 5 µM [2, 7]: 2.3
C=CC(=O)C#CC#CC[C@H]1OC(C)(C)O[C@@H]1CCCCCCC [Compound 6]		None	
C=C[C@H](O)C#CC#CC[C@@H]1OC(C)(C)O[C@H]1CCCCCCC [Compound 17]	~5 µM		
C=C[C@@H](O)C#CC#CC[C@@H](O)[C@H](O)CCCCCCC [Compound 1]			IC50 [1, 6]: > 40 µM; fold induction at 20 µM [2, 7]: 2
CCCCCCC[C@H]1OC(C)(C)O[C@@H]1Cc1nnn(Cc2ccccc2)c1C(O)CC (some centres unmarked) [Compound 11]	~35 µM	None	
CCCCCCC[C@H]1OC(C)(C)O[C@@H]1CC#CC#C/C=C/CO [analog 9]		None	
CCCCCCC[C@H]1OC(C)(C)O[C@@H]1CC#CC#C[C@H](O)c1ccccc1 [Example 20]	~10 µM	None	
CCCCCCC[C@@H](O)[C@H](O)CC#CC#C[C@H](O)c1ccccc1 [Example 24, (1R,7R,8R)-1-phenyl-2,4-pentadecadiyne-1,7,8-triol]			IC50 ([1]; read-out: 50% toxicity in IMR-32 cells): ~8 µM; EC50 ([2]; Homo sapiens): ~3.5 µM; fold induction at 5 µM [2, 7]: 1.5
CCCCCCC[C@@H](O)[C@H](O)CC#CC#CC[C@H](O)[C@@H](O)CCCCCCC [analog 2]		None	IC50 [1, 6]: ~25 µM
CCCCCCC[C@H]1OC(C)(C)O[C@@H]1CC#CC(O)CC (some centres unmarked) [Compound 10]	~25 µM	None	
CCCCCCC[C@H]1OC(C)(C)O[C@@H]1CC#CC(O)CC (some centres unmarked) [drawing 251]			IC50 [1, 5]: 25 µM
